# Measured values: US20110110940A1, “Methods for Enhancing the Efficacy of Vascular Disrupting Agents” (OXIGENE, INC., priority 2008, published 2011)
# System: GFP+ bone marrow cells in the viable tumor rim of LLC tumors
# Experiment: Homing/invasion of GFP+ bone marrow cells (CEPs) to the viable tumor rim and incorporation into CD31+ tumor vasculature, confocal microscopy of LLC tumor sections
# Type: in vivo, mice
# Conditions: 3 days after treatment
# Excerpt: Integrin ∘4β1 (VLA4) promotes the homing of circulating cells to the α4β1 ligand binding (VCAM) expressed at the tumor site (Jin et al. 2006. J Clin Invest 116:652-662). […] We determined whether α4β1 integrin contributes to CEP and possibly other types of bone-marrow pro-angiogenic cell invasion and homing to the viable tumor rim after VDA treatment. To this end, green fluorescent protein (GFP)positive bone marrow cells obtained from syngeneic UBI/GFP/BL6 donor mice (The Jackson Laboratory, Bar Harbor, Me.) were transplanted into lethally irradiated C57Bl/6 recipient mice (as described in Theise, et al. 2000. Hepatology 31:235-240). Three weeks later, mice were subcutaneously (s.c.) implanted with 0.5×10^6 Lewis Lung Carcinoma (LLC) cells (ATCC, Manassas, Va.).
# When tumors reached 500 mm^3, mice were treated with an integrin α4β1 specific blocking antibody (Jin 2006), CA1P, or a combination of the two agents. After 3 days, tumor volumes were measured, mice were sacrificed and tumors were removed for the evaluation of necrosis (FIG. 1A) and incorporation of bone marrow cells to the tumor vasculature (FIG. 1B). […] FIG. 1C provides tumor volumes measured three days after treatment and normalized to untreated control tumors. *: 0.05>p>0.01; **: p<0.01. Tumor size was assessed with Vernier calipers by using the formula width^2×length×0.5. […]
smiles,measurement,setting,value
"COc1cc(/C=C\c2ccc(OC)c(OP(=O)(O)O)c2OP(=O)(O)O)cc(OC)c1OC [CA1P, combretastatin A-1 diphosphate]",invasion/homing of GFP+ cells (bone marrow cells) in the viable tumor rim (FIG. 1B),,massive invasion of GFP^+ cells
same,"incorporation of GFP+ cells into blood vessels (colocalization of GFP+ and CD31+ cells, FIG. 1B)",CD31 staining,some of which were found to incorporate into blood vessels
